In PMC9041313 (RSC Advances, 2021):

Molecular target: T1, human MAGL (hMAGL) (Homo sapiens, UniProt Q99685)
T1 sequence (Q99685 1-303): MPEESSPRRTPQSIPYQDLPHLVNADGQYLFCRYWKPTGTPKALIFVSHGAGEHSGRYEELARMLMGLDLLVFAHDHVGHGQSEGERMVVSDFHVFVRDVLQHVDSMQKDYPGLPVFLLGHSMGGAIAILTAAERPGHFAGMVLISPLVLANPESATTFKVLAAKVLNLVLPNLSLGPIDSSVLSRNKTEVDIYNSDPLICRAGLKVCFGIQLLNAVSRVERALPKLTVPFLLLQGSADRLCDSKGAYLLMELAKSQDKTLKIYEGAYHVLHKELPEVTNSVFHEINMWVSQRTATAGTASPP
Assay: Human MAGL assay
Assay type: biochemical
Conditions: 10 μM compound concentration

8-prenylnaringenin [NP-2]
inhibition% against hMAGL: over 40%
